Reference: the supplement of paper PMC7287046

What was measured:
Settings in all cases: exposure time: 72 h
SF539 [1] = assay: Loewe synergy score (Combenefit); higher = more synergy; extreme values may be limits of the assay
Experimental: (§1)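 The same 6x6 dose matrices of drug pairs on glioma cell lines (72 h, CellTiter-Glo viability normalised to DMSO, triplicate) were scored with Combenefit. The Loewe, Bliss and HSA synergy scores are given; paper thresholds are Loewe 7.8 and Bliss 2.5.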

KNS-42 [2] = assay: as above
Experimental: as §1

SNB75 [3] = assay: as above
Experimental: as §1

U87 [4] = assay: as above
Experimental: as §1

U251 [5] = assay: as above
Experimental: as §1

T98G [6] = assay: as above
Experimental: as §1

U118 [7] = assay: as above
Experimental: as §1

AM-38 [8] = assay: as above
Experimental: as §1

SF268 [9] = assay: as above
Experimental: as §1

SF539 [10] = assay: HSA synergy score (Combenefit); higher = more synergy
Experimental: as §1

KNS-42 [11] = assay: as above
Experimental: as §1

SNB75 [12] = assay: as above
Experimental: as §1

U87 [13] = assay: as above
Experimental: as §1

U251 [14] = assay: as above
Experimental: as §1

T98G [15] = assay: as above
Experimental: as §1

U118 [16] = assay: as above
Experimental: as §1

AM-38 [17] = assay: as above
Experimental: as §1

SF268 [18] = assay: as above
Experimental: as §1

SF539 [19] = assay: Bliss synergy score (Combenefit); higher = more synergy; extreme values may be limits of the assay
Experimental: as §1

KNS-42 [20] = assay: as above
Experimental: as §1

SNB75 [21] = assay: as above
Experimental: as §1

U87 [22] = assay: as above
Experimental: as §1

U251 [23] = assay: as above
Experimental: as §1

T98G [24] = assay: as above
Experimental: as §1

U118 [25] = assay: as above
Experimental: as §1

AM-38 [26] = assay: as above
Experimental: as §1

SF268 [27] = assay: as above
Experimental: as §1

SF539 [28] = assay: Chou-Talalay combination index (dimensionless); higher = less synergy (more antagonism)
Experimental: (§2)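 Glioma cell lines were treated for 72 h with a 6x6 matrix of two drugs, each in twofold dilutions with the top dose at the single-drug IC50. Viability was read by CellTiter-Glo and normalised to DMSO controls, in triplicate. The Chou-Talalay combination index was computed by the median effect principle; CI < 0.8 means synergy.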

SNB75 [29] = assay: as above
Experimental: as §2

U87 [30] = assay: as above
Experimental: as §2

U251 [31] = assay: as above
Experimental: as §2

AM38 = assay: as above
Experimental: as §2

U118 [32] = assay: as above
Experimental: as §2

SF268 [33] = assay: as above
Experimental: as §2

KNS42 = assay: as above
Experimental: as §2

T98 = assay: as above
Experimental: as §2

SMILES | Loewe synergy score (SF539 [1]) | Loewe synergy score (KNS-42 [2]) | Loewe synergy score (SNB75 [3]) | Loewe synergy score (U87 [4]) | Loewe synergy score (U251 [5]) | Loewe synergy score (T98G [6]) | Loewe synergy score (U118 [7]) | Loewe synergy score (AM-38 [8]) | Loewe synergy score (SF268 [9]) | HSA synergy score (SF539 [10]) | HSA synergy score (KNS-42 [11]) | HSA synergy score (SNB75 [12]) | HSA synergy score (U87 [13]) | HSA synergy score (U251 [14]) | HSA synergy score (T98G [15]) | HSA synergy score (U118 [16]) | HSA synergy score (AM-38 [17]) | HSA synergy score (SF268 [18]) | Bliss synergy score (SF539 [19]) | Bliss synergy score (KNS-42 [20]) | Bliss synergy score (SNB75 [21]) | Bliss synergy score (U87 [22]) | Bliss synergy score (U251 [23]) | Bliss synergy score (T98G [24]) | Bliss synergy score (U118 [25]) | Bliss synergy score (AM-38 [26]) | Bliss synergy score (SF268 [27]) | Chou-Talalay combination index (SF539 [28]) | Chou-Talalay combination index (SNB75 [29]) | Chou-Talalay combination index (U87 [30]) | Chou-Talalay combination index (U251 [31]) | Chou-Talalay combination index (AM38) | Chou-Talalay combination index (U118 [32]) | Chou-Talalay combination index (SF268 [33]) | Chou-Talalay combination index (KNS42) | Chou-Talalay combination index (T98)
CO[C@H]1C[C@@H]2CC[C@@H](C)[C@@](O)(O2)C(=O)C(=O)N2CCCC[C@H]2C(=O)O[C@H]([C@H](C)C[C@@H]2CC[C@@H](O)[C@H](OC)C2)CC(=O)[C@H](C)/C=C(\C)[C@@H](O)[C@@H](OC)C(=O)[C@H](C)C[C@H](C)/C=C/C=C/C=C/1C [Rapamycin] + C=CCc1cccc(/C=N/NC(=O)CN2CCN(Cc3ccccc3)CC2)c1O [PAC-1] | 3.72 | 13.7 | 7.67 | 0 | 0.233 | 0 | 3.97 | 0.274 | 5.45 | 4.8 | 14.1 | 8.87 | 0.71 | 0.552 | 1.1 | 4.75 | 0.274 | 5.88 | 0.0748 | 5.47 | 0.0756 | 0 | 0.334 | 0 | 0 | 0 | 0 | 0.975 | 0.925 | 1.01 | 0.927 | 1.24 | 1.03 | 0.962 | 0.607 | 1.13
CO[C@H]1C[C@@H]2CC[C@@H](C)[C@@](O)(O2)C(=O)C(=O)N2CCCC[C@H]2C(=O)O[C@H]([C@H](C)C[C@@H]2CC[C@@H](O)[C@H](OC)C2)CC(=O)[C@H](C)/C=C(\C)[C@@H](O)[C@@H](OC)C(=O)[C@H](C)C[C@H](C)/C=C/C=C/C=C/1C [Rapamycin] + CCOc1nc(NC(=O)Cc2cc(OC)ccc2OC)cc(N)c1C#N [JNK inhibitor VIII] | 0.362 | 6.4 | 16.7 | 0.748 | 5.59 | 0.183 | 1.75 | 3.73 | 0.192 | 0.625 | 6.4 | 19.9 | 5.37 | 8.47 | 0.183 | 2.12 | 3.73 | 0.46 | 0 | 1.98 | 0.0362 | 4.63 | 6.55 | 0.183 | 0 | 0 | 0 | 1.09 | 0.706 | 0.776 | 0.74 | 0.906 | 1.1 | 1.09 | 0.843 | 0.917
CO[C@H]1C[C@@H]2CC[C@@H](C)[C@@](O)(O2)C(=O)C(=O)N2CCCC[C@H]2C(=O)O[C@H]([C@H](C)C[C@@H]2CC[C@@H](O)[C@H](OC)C2)CC(=O)[C@H](C)/C=C(\C)[C@@H](O)[C@@H](OC)C(=O)[C@H](C)C[C@H](C)/C=C/C=C/C=C/1C [Rapamycin] + C[C@@H](Oc1cc(-c2cnn(C3CCNCC3)c2)cnc1N)c1c(Cl)ccc(F)c1Cl [Crizotinib] | 3.24 | 18.6 | 9.67 | 16.4 | 26 | 0 | 5.03 | 0 | 8.2 | 3.78 | 19.5 | 10.4 | 19.4 | 26.2 | 0 | 5.07 | 0.00484 | 8.72 | 0 | 3.73 | 0.128 | 11.2 | 5.62 | 0 | 0 | 0 | 0.0254 | 0.968 | 0.943 | 0.683 | 0.715 | 1.07 | 1 | 0.928 | 0.807 | 1.1
CO[C@H]1C[C@@H]2CC[C@@H](C)[C@@](O)(O2)C(=O)C(=O)N2CCCC[C@H]2C(=O)O[C@H]([C@H](C)C[C@@H]2CC[C@@H](O)[C@H](OC)C2)CC(=O)[C@H](C)/C=C(\C)[C@@H](O)[C@@H](OC)C(=O)[C@H](C)C[C@H](C)/C=C/C=C/C=C/1C [Rapamycin] + Cc1cc([C@@H](C)Nc2ccccc2C(=O)O)c2nc(N3CCOCC3)cc(=O)n2c1 [AZD6482] | 5.95 | 2.6 | 21.8 | 0 | 1.43 | 12 | 2.56 | 9.55 | 3.35 | 6.85 | 2.6 | 25.2 | 0 | 1.43 | 14.4 | 3.28 | 12.4 | 3.85 | 0 | 1.42 | 3.78 | 0 | 1.43 | 0.59 | 0 | 1.1 | 0.00824 | 1.05 | 0.75 | 0.974 | 0.927 | 0.643 | 1.16 | 1.02 | 0.912 | 0.924
